# In US20100286058A1, “Assessing Chemotherapy Resistance of Colorectal Tumors by Determining Sparc Hypermethylation” (priority 2007, published 2010):
# Several values for one entry are separate records, joined by “and”; a condition that tells them apart may be missing. Identical values can stand only once. Entries after “also recorded” stand apart in the source; their conditions may differ.
# Columns and labels:
# MIP 101 cells = assay: Cell viability (WST-1); type: cell-based; conditions: 24 h, read-out: viable cells
# Description: (§1) Human colorectal cancer (CRC) cell lines, MIP 101, RKO, HCT116 and HT29 (ATCC), and a normal colon cell line CCD 112CON (ATCC), were maintained in DMEM supplemented with 10% fetal bovine serum; 1% Kanamycin, Streptomycin, Penicillin; and incubated at 37° C. and 5% CO2. To determine the effect of reversing the methylation status of SPARC, a demethylating agent (5-Aza-2′deoxycytidine, “5-Aza”) was added to the culture media at a final concentration of 4 μm for a period of 7 days with medium changes on day 4, before assessing its effect on cell viability (WST-1), apoptosis (Caspase 3/7 and TUNEL) and cell proliferation.
# Cell viability was evaluated using WST-1 (Roche) following the manufacturer's instructions. Cells exposed to 5-Aza for a period of 7 days (and untreated controls) were seeded at 10,000 cells per well in triplicate into a 96-well plate. Twelve hours later, 5-Fluorouracil (5-FU) was added to a final concentration of 0, 500 or 1,000 μM for an additional 24 h. WST reagent was added to each well and incubated at 37° C. after which plates were read at 60 min at 440 nm. Three independent experiments were analyzed. The significance of differences were determined using Student's t-test (P<0.05).
# SPARC [1] = assay: RT-PCR of SPARC mRNA; type: cell-based, Human; conditions: MIP101 cells exposed to 5-Aza
# Excerpt: This technique is based on bisulfite treatment of the DNA, which modifies cytosines to uracil except when they are methylated (5-methylcytosine), followed by PCR. After bisulfite modification the DNA was amplified using methylation specific primers. Two primer sets, previously described, were used to target the CpG island located in the putative promoter region of the SPARC gene, and are referred as MSP1 and MSP2. Primers targeting INK4A(p16) were used as control. […] For RT-PCR, mRNA isolated from CRC cell lines were extracted using Trizol (Invitrogen). Primers to amplify SPARC, sense 5′-GGGAGGGCCTTGGCAG-3′ antisense 5′-GCACATGGGGGTGTTG-3′ and actin, sense 5′-GCCACGGCTGCTTCCAG-3′antisense 5′-GGCGTACAGGTCTTTGC-3′ were annealed at 49° C. in 45 cycles after reverse transcription for 1 hour at 50° C. Amplicons were separated in 2.5% agarose gel electrophoresis.
# SPARC promoter = assay: Methylation specific PCR of CRC cell lines; type: cell-based, Human; conditions: 4 μM 5-Aza, 7 days in vitro; all four CRC cell lines (MIP101, RKO, HCT116, HT29)
# Description: as §1
# This technique is based on bisulfite treatment of the DNA, which modifies cytosines to uracil except when they are methylated (5-methylcytosine), followed by PCR. After bisulfite modification the DNA was amplified using methylation specific primers. Two primer sets, previously described, were used to target the CpG island located in the putative promoter region of the SPARC gene, and are referred as MSP1 and MSP2. Primers targeting INK4A(p16) were used as control. […] For RT-PCR, mRNA isolated from CRC cell lines were extracted using Trizol (Invitrogen). […]
# HCT 116 cells = assay: Cell proliferation (cell counts); type: cell-based, Human; conditions: incubated with 5-Aza, most noticeable after 2-days
# Description: as §1
# (§2) To determine the rate of cell proliferation, cells exposed to 5-Aza for 7 days (and untreated controls) were seeded at 20,000 cells/well into a 48-well plate. Cells were counted from duplicate wells at 24, 48 and 72 h. The effect of 5-FU exposure for 24 hour-period on cell proliferation in the presence or absence of 5-Aza was also determined. We performed two independent experiments.
# RKO cells = assay: Cell proliferation (cell counts); type: cell-based, Human
# Description: as §1, §2
# HT29 cells = assay: Cell proliferation (cell counts); type: cell-based, Human; conditions: incubated with 5-Aza, most noticeable after 2-days
# Description: as §1, §2
# MIP101 cells = assay: Cell proliferation (cell counts); type: cell-based, Human
# Description: as §1, §2
# SPARC [2] = assay: Western blot of SPARC protein; type: cell-based, Human; conditions: MIP101 cells (printed MW101) exposed to 5-Aza
# INK4A(p16) promoter = assay: Methylation specific PCR of CRC cell lines (control promoter); type: cell-based, Human; conditions: 4 μM 5-Aza, 7 days in vitro; all four CRC cell lines
# [3] = target: T1, interaction between Dnmtl and the SPARC promoter (Homo sapiens, UniProt P26358); assay: Chromatin immunoprecipitation (ChIP) assay; type: cell-based; conditions: all CRC cell lines, following exposure to 5-Aza
# T1 construct: endogenous in cells
# T1 sequence (P26358 whole entry): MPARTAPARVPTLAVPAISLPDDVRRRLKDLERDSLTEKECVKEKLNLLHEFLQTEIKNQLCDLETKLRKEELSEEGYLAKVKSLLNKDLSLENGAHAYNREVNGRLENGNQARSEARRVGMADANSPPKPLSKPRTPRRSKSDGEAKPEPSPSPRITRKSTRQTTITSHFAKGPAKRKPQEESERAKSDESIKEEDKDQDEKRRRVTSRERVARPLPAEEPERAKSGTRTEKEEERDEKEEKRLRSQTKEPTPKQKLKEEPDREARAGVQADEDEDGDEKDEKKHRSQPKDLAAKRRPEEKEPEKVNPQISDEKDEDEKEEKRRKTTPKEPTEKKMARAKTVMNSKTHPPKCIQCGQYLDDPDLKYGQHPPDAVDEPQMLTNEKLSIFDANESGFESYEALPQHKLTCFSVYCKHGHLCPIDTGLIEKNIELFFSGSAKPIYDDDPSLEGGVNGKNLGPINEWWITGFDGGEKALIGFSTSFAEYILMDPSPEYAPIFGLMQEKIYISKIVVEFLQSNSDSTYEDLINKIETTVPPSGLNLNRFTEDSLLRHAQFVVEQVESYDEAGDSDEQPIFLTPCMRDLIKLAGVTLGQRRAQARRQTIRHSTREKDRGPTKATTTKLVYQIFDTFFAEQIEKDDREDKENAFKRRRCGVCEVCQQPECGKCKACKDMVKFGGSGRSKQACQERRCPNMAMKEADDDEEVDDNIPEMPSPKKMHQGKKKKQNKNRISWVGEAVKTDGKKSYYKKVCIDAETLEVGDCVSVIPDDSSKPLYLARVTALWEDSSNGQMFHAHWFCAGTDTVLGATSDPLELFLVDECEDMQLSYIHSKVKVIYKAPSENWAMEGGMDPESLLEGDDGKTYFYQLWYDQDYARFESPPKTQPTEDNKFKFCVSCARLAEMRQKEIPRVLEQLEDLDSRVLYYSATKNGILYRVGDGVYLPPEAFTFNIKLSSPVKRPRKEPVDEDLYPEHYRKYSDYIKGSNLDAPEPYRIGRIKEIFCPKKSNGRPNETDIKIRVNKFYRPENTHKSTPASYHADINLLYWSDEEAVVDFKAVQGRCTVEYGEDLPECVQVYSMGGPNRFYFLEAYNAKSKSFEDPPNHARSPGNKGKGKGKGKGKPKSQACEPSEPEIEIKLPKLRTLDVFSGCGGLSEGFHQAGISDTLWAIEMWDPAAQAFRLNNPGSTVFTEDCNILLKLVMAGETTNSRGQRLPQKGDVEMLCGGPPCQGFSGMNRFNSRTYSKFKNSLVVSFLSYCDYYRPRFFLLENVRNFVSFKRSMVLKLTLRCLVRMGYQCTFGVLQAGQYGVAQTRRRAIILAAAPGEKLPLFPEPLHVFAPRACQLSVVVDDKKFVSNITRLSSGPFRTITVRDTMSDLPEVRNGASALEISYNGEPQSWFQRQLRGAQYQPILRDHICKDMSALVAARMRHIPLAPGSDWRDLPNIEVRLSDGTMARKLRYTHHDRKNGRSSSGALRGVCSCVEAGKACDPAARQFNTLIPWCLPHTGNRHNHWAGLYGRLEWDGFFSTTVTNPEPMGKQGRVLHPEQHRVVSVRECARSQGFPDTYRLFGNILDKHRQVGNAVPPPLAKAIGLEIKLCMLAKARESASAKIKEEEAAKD
# Description: To evaluate the effect of 5-Aza exposure on the interaction between Dnmtl (a DNA methyltranferase) with the promoter region of SPARC, a ChIP assay was performed using a ChIP kit (Epigentek) as per the manufacturer's instructions. Cells were fixed with formaldehyde for protein/DNA crosslinking and lysed. The DNA was sheared by sonication (10 pulses, […]) and added to a well coated with the antibody to the protein of interest (anti-Dnmtl, cat. #A-1001, Epigentek). Washes were performed to remove unbound material, while Dnmtl-bound DNA was released by protein digestion with proteinase K. The DNA was purified through a column and PCR was performed using primers designed to target the SPARC promoter region.
SMILES,"viability at 500 µM (MIP 101 cells; Homo sapiens, 500 μM 5-FU only) [%]","viability at 1000 µM (MIP 101 cells; Homo sapiens, 1,000 μM 5-FU only) [%]",SPARC RNA expression (RT-PCR) (SPARC [1]),methylation status in the MSP1 and MSP2 regions of the SPARC promoter (SPARC promoter),cell proliferation (HCT 116 cells),increase in cell doubling time (RKO cells; 4 μM 5-Aza vs control),doubling time (RKO cells; incubation with 4 μM 5-Aza (control 0.7 days)) [days],cell proliferation (HT29 cells),increase in cell doubling time (MIP101 cells; 4 μM 5-Aza vs control) [fold],doubling time (MIP101 cells; incubation with 4 μM 5-Aza (control 0.8 days)) [days],SPARC protein expression (Western blot) (SPARC [2]),methylation status of the INK4A(p16) promoter (INK4A(p16) promoter),interaction between the SPARC promoter and Dnmtl (ChIP) [3]
"O=c1[nH]cc(F)c(=O)[nH]1 [5-FU, 5-Fluorouracil]",87.7,82.7,–,–,–,–,–,–,–,–,–,–,–
"Nc1ncn([C@H]2C[C@H](O)[C@@H](CO)O2)c(=O)n1 [5-Aza, 5-Aza-2′deoxycytidine]",–,–,higher SPARC expression; also recorded: reactivation of SPARC RNA and protein expression,change in the methylation status,less dramatic yet significant decrease in cell proliferation,2.4 fold and 2.43 fold,1.7,less dramatic yet significant decrease in cell proliferation,3,2.4,reactivation of SPARC RNA and protein expression,change in the methylation status,no longer observed
